From ChEMBL document CHEMBL4649997, “Data for probe TP-472” (2021)

Legend:
[1] = target: Histone acetyltransferase p300 (Homo sapiens) (UniProt Q09472); conditions: Compound concentration 10.0 uM, Protein concentration 2.0 uM
[2] = target: Transcription initiation factor TFIID subunit 1-like (Homo sapiens) (UniProt Q8IZX4); conditions: Compound concentration 10.0 uM, Protein concentration 2.0 uM
[3] = target: T1, CREB-binding protein (Homo sapiens, UniProt Q92793); assay: Alphascreen assay. Binding to CREBBPA (domain start/stop: R1081-G1197) by alphascreen assay
[4] = target: Peregrin (Homo sapiens) (UniProt P55201); conditions: Compound concentration 10.0 uM, Protein concentration 2.0 uM
[5] = target: Bromodomain-containing protein 2 (Homo sapiens) (UniProt P25440); conditions: Compound concentration 10.0 uM, Protein concentration 2.0 uM
Chain of Bromodomain-containing protein 2 (Homo sapiens) (P25440 whole entry, looked up): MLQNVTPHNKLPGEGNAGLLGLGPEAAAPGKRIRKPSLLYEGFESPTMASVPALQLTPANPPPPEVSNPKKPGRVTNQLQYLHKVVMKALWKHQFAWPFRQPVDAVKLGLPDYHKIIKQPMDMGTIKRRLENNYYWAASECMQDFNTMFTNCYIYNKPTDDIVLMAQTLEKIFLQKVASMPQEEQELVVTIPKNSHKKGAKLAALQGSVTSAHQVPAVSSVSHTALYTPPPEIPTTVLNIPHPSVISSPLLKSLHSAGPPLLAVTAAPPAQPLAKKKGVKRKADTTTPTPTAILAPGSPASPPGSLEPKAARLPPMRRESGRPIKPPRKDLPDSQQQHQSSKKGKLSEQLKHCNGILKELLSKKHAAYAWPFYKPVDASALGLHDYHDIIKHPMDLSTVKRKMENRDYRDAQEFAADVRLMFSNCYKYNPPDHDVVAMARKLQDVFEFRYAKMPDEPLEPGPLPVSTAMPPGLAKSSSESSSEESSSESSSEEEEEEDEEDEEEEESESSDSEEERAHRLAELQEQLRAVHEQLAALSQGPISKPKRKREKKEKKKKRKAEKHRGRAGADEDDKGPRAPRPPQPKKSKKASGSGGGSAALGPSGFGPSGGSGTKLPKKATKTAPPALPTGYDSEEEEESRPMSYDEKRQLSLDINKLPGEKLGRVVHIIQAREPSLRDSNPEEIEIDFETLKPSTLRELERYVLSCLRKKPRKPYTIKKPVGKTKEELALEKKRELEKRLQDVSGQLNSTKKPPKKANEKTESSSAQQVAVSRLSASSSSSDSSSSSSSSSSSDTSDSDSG

[6] = target: Histone acetyltransferase KAT2A (Homo sapiens) (UniProt Q92830); conditions: Compound concentration 10.0 uM, Protein concentration 2.0 uM
[7] = target: Bromodomain-containing protein 2 (Homo sapiens) (UniProt P25440); conditions: Compound concentration 10.0 uM, Protein concentration 2.0 uM; remark: listed apart in the source
[8] = target: T1, CREB-binding protein; conditions: Compound concentration 10.0 uM, Protein concentration 2.0 uM
[9] = target: SWI/SNF-related matrix-associated actin-dependent regulator of chromatin subfamily A member 2 (Homo sapiens) (UniProt P51531); conditions: Compound concentration 10.0 uM, Protein concentration 2.0 uM
[10] = target: Protein polybromo-1 (Homo sapiens) (UniProt Q86U86); conditions: Compound concentration 10.0 uM, Protein concentration 2.0 uM
Chain of Protein polybromo-1 (Homo sapiens) (Q86U86 whole entry): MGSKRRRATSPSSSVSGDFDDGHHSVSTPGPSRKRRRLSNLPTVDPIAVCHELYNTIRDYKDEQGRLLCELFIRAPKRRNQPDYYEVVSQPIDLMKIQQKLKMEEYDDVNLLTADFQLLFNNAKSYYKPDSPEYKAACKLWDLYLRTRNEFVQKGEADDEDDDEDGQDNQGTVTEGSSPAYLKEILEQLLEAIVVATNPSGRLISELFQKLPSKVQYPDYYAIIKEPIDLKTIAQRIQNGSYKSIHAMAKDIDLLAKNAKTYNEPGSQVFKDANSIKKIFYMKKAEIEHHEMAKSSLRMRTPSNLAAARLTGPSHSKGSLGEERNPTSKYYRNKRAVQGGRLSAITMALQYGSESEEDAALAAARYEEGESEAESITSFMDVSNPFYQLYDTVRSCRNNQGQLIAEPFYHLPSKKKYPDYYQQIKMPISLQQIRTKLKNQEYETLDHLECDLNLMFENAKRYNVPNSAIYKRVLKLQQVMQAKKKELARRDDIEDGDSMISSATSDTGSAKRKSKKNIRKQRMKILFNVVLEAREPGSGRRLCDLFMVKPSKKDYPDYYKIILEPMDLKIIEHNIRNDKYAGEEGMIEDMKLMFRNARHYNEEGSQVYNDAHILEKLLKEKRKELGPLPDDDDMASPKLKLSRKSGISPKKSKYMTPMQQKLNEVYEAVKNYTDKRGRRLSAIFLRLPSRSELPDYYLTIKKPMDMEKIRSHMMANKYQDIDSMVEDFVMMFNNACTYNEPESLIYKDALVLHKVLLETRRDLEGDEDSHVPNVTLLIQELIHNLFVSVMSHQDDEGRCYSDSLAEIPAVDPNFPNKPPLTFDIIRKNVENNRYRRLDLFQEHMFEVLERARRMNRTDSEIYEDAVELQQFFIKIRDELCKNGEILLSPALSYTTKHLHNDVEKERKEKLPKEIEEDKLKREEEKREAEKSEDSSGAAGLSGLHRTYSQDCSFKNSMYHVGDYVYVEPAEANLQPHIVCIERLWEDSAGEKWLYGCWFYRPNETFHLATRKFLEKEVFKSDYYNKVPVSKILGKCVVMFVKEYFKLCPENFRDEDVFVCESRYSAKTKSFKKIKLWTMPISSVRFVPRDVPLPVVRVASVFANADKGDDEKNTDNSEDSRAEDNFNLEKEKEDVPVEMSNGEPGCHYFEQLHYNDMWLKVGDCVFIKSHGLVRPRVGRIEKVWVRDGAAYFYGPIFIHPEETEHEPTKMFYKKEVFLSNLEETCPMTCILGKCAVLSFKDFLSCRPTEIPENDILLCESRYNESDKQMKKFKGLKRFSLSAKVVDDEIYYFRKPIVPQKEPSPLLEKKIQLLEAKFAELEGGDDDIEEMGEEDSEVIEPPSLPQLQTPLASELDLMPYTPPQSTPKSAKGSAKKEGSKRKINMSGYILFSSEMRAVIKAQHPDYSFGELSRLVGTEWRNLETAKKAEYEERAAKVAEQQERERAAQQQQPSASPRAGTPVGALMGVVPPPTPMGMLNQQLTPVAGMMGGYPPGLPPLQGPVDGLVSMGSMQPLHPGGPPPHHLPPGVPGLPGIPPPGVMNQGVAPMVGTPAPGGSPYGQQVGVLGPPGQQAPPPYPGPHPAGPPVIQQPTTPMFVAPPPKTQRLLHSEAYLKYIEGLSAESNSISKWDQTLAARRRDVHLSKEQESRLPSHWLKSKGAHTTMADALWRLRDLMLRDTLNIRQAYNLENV

[11] = target: T2, Chromatin remodeling regulator CECR2 (Homo sapiens, UniProt Q9BXF3); assay: Alphascreen assay. Binding to CECR2A (domain start/stop: P420-D543) by alphascreen assay
[12] = target: Bromodomain-containing protein 7 (Homo sapiens) (UniProt Q9NPI1); conditions: Compound concentration 10.0 uM, Protein concentration 2.0 uM
[13] = target: Bromodomain-containing protein 4 (Homo sapiens) (UniProt O60885); conditions: Compound concentration 10.0 uM, Protein concentration 2.0 uM
[14] = target: Transcription intermediary factor 1-beta (Homo sapiens) (UniProt Q13263); conditions: Compound concentration 10.0 uM, Protein concentration 2.0 uM
[15] = target: Transcription initiation factor TFIID subunit 1-like (Homo sapiens) (UniProt Q8IZX4); conditions: Compound concentration 10.0 uM, Protein concentration 2.0 uM; remark: listed apart in the source
[16] = target: Nucleosome-remodeling factor subunit BPTF (Homo sapiens) (UniProt Q12830); conditions: Compound concentration 10.0 uM, Protein concentration 2.0 uM
[17] = target: Bromodomain adjacent to zinc finger domain protein 1A (Homo sapiens) (UniProt Q9NRL2); conditions: Compound concentration 10.0 uM, Protein concentration 2.0 uM
[18] = target: Bromodomain testis-specific protein (Homo sapiens) (UniProt Q58F21); conditions: Compound concentration 10.0 uM, Protein concentration 2.0 uM
[19] = target: Nuclear body protein SP140-like protein (Homo sapiens) (UniProt Q9H930); conditions: Compound concentration 10.0 uM, Protein concentration 2.0 uM
[20] = target: Transcription initiation factor TFIID subunit 1 (Homo sapiens) (UniProt P21675); conditions: Compound concentration 10.0 uM, Protein concentration 2.0 uM
Chain of Transcription initiation factor TFIID subunit 1 (Homo sapiens) (P21675 whole entry): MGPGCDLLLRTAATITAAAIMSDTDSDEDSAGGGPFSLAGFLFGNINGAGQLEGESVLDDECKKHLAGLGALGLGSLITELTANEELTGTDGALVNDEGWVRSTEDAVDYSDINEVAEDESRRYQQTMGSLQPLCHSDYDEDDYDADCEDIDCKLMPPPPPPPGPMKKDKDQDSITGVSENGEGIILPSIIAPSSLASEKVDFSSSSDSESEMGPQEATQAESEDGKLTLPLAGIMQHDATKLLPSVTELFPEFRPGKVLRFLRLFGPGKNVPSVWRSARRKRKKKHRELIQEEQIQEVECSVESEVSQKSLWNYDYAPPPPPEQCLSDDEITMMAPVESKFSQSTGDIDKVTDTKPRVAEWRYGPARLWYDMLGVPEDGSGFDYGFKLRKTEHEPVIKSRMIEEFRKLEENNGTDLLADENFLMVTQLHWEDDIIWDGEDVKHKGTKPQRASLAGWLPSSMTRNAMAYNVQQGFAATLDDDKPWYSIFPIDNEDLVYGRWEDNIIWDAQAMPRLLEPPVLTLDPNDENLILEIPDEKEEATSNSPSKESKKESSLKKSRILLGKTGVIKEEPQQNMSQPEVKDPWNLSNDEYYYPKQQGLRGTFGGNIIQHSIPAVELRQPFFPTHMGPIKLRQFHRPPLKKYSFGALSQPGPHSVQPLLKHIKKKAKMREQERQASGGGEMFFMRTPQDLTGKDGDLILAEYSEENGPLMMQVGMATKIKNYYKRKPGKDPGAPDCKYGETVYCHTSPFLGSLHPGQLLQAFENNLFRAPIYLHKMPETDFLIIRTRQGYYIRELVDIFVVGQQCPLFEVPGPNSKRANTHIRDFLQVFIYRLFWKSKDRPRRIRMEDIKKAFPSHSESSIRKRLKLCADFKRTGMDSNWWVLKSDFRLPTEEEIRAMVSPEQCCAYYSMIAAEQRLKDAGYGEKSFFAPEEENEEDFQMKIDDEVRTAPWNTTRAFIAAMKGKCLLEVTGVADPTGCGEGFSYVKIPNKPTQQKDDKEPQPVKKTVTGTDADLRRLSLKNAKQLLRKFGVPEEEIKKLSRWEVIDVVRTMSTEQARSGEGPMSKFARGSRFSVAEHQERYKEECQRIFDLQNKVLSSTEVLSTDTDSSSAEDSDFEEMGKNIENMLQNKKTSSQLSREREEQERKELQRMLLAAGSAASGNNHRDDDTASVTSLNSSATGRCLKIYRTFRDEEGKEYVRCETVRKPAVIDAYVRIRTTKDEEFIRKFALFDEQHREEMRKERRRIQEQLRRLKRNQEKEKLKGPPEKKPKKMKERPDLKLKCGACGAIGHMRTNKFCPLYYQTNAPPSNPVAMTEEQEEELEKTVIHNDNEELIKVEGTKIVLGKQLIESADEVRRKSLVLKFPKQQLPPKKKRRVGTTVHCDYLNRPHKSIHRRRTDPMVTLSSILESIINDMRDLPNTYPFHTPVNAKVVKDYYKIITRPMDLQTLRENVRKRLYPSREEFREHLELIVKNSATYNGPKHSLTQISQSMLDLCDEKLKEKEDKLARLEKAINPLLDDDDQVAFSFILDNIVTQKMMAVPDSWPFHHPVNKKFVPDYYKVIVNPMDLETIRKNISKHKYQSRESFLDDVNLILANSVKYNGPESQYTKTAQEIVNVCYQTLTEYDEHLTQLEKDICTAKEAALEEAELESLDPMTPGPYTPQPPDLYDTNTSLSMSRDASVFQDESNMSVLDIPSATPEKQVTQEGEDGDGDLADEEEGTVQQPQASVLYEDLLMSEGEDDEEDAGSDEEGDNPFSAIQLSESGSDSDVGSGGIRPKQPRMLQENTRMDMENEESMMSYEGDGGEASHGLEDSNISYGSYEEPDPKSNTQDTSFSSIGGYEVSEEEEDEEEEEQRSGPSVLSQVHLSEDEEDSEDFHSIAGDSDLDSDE

[21] = target: Protein polybromo-1 (Homo sapiens) (UniProt Q86U86); conditions: Compound concentration 10.0 uM, Protein concentration 2.0 uM; remark: listed apart in the source
[22] = target: Transcription intermediary factor 1-alpha (Homo sapiens) (UniProt O15164); conditions: Compound concentration 10.0 uM, Protein concentration 2.0 uM
[23] = target: Bromodomain-containing protein 3 (Homo sapiens) (UniProt Q15059); conditions: Compound concentration 10.0 uM, Protein concentration 2.0 uM
Chain of Bromodomain-containing protein 3 (Homo sapiens) (Q15059 2-726 limits assumed): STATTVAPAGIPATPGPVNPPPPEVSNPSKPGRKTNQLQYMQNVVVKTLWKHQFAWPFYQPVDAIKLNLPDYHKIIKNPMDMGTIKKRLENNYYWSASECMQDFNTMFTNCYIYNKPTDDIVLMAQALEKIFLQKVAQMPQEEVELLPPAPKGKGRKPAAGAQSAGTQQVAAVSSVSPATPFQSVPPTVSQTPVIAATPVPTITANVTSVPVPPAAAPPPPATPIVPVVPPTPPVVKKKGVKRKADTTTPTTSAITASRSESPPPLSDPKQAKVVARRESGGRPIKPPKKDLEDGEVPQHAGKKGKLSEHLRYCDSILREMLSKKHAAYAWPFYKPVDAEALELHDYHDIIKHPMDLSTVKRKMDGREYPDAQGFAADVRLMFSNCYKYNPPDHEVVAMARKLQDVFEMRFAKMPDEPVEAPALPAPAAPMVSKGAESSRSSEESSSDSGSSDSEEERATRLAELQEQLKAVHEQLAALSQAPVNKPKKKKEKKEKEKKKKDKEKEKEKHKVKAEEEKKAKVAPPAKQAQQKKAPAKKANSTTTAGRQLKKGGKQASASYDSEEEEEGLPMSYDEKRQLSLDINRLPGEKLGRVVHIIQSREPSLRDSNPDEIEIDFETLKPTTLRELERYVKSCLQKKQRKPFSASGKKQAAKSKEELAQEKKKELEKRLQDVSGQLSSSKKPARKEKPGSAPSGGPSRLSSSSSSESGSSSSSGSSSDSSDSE

[24] = target: Bromodomain and WD repeat-containing protein 3 (Homo sapiens) (UniProt Q6RI45); conditions: Compound concentration 10.0 uM, Protein concentration 2.0 uM
[25] = target: Bromodomain and PHD finger-containing protein 3 (Homo sapiens) (UniProt Q9ULD4); conditions: Compound concentration 10.0 uM, Protein concentration 2.0 uM
[26] = target: Bromodomain and WD repeat-containing protein 1 (Homo sapiens) (UniProt Q9NSI6); conditions: Compound concentration 10.0 uM, Protein concentration 2.0 uM
[27] = target: Protein polybromo-1 (Homo sapiens) (UniProt Q86U86); conditions: Compound concentration 10.0 uM, Protein concentration 2.0 uM; remark: listed apart in the source
[28] = target: Protein polybromo-1 (Homo sapiens) (UniProt Q86U86); conditions: Compound concentration 10.0 uM, Protein concentration 2.0 uM; remark: listed apart in the source
[29] = target: Transcription initiation factor TFIID subunit 1 (Homo sapiens) (UniProt P21675); conditions: Compound concentration 10.0 uM, Protein concentration 2.0 uM; remark: listed apart in the source
[30] = target: SWI/SNF-related matrix-associated actin-dependent regulator of chromatin subfamily A member 4 (Homo sapiens) (UniProt P51532); conditions: Compound concentration 10.0 uM, Protein concentration 2.0 uM
[31] = target: Bromodomain-containing protein 1 (Homo sapiens) (UniProt O95696); conditions: Compound concentration 10.0 uM, Protein concentration 2.0 uM
[32] = target: Bromodomain adjacent to zinc finger domain protein 2B (Homo sapiens) (UniProt Q9UIF8); conditions: Compound concentration 10.0 uM, Protein concentration 2.0 uM
[33] = target: Bromodomain adjacent to zinc finger domain protein 2A (Homo sapiens) (UniProt Q9UIF9); conditions: Compound concentration 10.0 uM, Protein concentration 2.0 uM
[34] = target: Protein polybromo-1 (Homo sapiens) (UniProt Q86U86); conditions: Compound concentration 10.0 uM, Protein concentration 2.0 uM; remark: listed apart in the source
[35] = target: Bromodomain-containing protein 3 (Homo sapiens) (UniProt Q15059); conditions: Compound concentration 10.0 uM, Protein concentration 2.0 uM; remark: listed apart in the source
[36] = target: Nuclear body protein SP140 (Homo sapiens) (UniProt Q13342); conditions: Compound concentration 10.0 uM, Protein concentration 2.0 uM
[37] = target: Peregrin (Homo sapiens, UniProt P55201); assay: Alphascreen assay. Binding to BRPF1B (domain start/stop: M626-G740) by alphascreen assay
[38] = target: Histone-lysine N-methyltransferase ASH1L (Homo sapiens) (UniProt Q9NR48); conditions: Compound concentration 10.0 uM, Protein concentration 2.0 uM
[39] = target: Protein polybromo-1 (Homo sapiens) (UniProt Q86U86); conditions: Compound concentration 10.0 uM, Protein concentration 2.0 uM; remark: listed apart in the source
[40] = target: Bromodomain testis-specific protein (Homo sapiens) (UniProt Q58F21); conditions: Compound concentration 10.0 uM, Protein concentration 2.0 uM; remark: listed apart in the source
[41] = target: Tyrosine-protein kinase BAZ1B (Homo sapiens) (UniProt Q9UIG0); conditions: Compound concentration 10.0 uM, Protein concentration 2.0 uM
[42] = target: Peregrin (Homo sapiens) (UniProt P55201); conditions: Compound concentration 10.0 uM, Protein concentration 2.0 uM; remark: listed apart in the source
[43] = target: Bromodomain-containing protein 9 (Homo sapiens) (UniProt Q9H8M2); conditions: Compound concentration 10.0 uM, Protein concentration 2.0 uM
[44] = target: PH-interacting protein (Homo sapiens) (UniProt Q8WWQ0); conditions: Compound concentration 10.0 uM, Protein concentration 2.0 uM
[45] = target: Histone acetyltransferase KAT2B (Homo sapiens) (UniProt Q92831); conditions: Compound concentration 10.0 uM, Protein concentration 2.0 uM
[46] = target: ATPase family AAA domain-containing protein 2B (Homo sapiens) (UniProt Q9ULI0); conditions: Compound concentration 10.0 uM, Protein concentration 2.0 uM
[47] = target: T2, Chromatin remodeling regulator CECR2; assay: Alphascreen assay. Binding to CECR2A (domain start/stop: P420-H538) by alphascreen assay
[48] = target: ATPase family AAA domain-containing protein 2 (Homo sapiens) (UniProt Q6PL18); conditions: Compound concentration 10.0 uM, Protein concentration 2.0 uM
[49] = target: T2, Chromatin remodeling regulator CECR2; conditions: Compound concentration 10.0 uM, Protein concentration 2.0 uM
[50] = target: Histone-lysine N-methyltransferase 2A (Homo sapiens) (UniProt Q03164); conditions: Compound concentration 10.0 uM, Protein concentration 2.0 uM

With `CC(=O)c1cc(-c2cc(C(=O)NC3CC3)ccc2C)c2ncccn12` the ΔTm [1] was 3.55 °C, the ΔTm [2] was 1.64 °C and the IC50 [3] was 3.44 µM. For the same compound, the ΔTm [4] was 0.29 °C, the ΔTm [5] was 1.14 °C and the ΔTm [6] was 0.61 °C. It also gave a ΔTm [7] of 0.84 °C, a ΔTm [8] of 2.98 °C and a ΔTm [9] of 0.13 °C. The ΔTm [10] was 0.08 °C, the IC50 [11] was 2.43 µM and the ΔTm [12] was 6.98 °C. It also gave a ΔTm [13] of 1.78 °C, a ΔTm [14] of -0.06 °C and a ΔTm [15] of 0.18 °C. It also gave a ΔTm [16] of -0.04 °C, a ΔTm [17] of 1.19 °C and a ΔTm [18] of 0.83 °C. The ΔTm [19] was 0.95 °C, the ΔTm [20] was 1.04 °C and the ΔTm [21] was -0.01 °C. For the same compound, the ΔTm [22] was 1.33 °C, the ΔTm [23] was 0.91 °C and the ΔTm [24] was 1.67 °C. For the same compound, the ΔTm [25] was 0.4 °C, the ΔTm [26] was 0.79 °C and the ΔTm [27] was -0.26 °C. For the same compound, the ΔTm [28] was 0.08 °C, the ΔTm [29] was 0.25 °C and the ΔTm [30] was 0.08 °C. The ΔTm [31] was 0.25 °C, the ΔTm [32] was 1.04 °C and the ΔTm [33] was 1.02 °C. The ΔTm [34] was 0.19 °C, the ΔTm [35] was 1.01 °C and the ΔTm [36] was 0.3 °C. It also gave an IC50 [37] of 2.23 µM, a ΔTm [38] of 0.38 °C and a ΔTm [39] of -0.13 °C. The ΔTm [40] was 0.61 °C, the ΔTm [41] was 0.68 °C and the ΔTm [42] was 0.67 °C. The ΔTm [43] was 9.32 °C, the ΔTm [44] was 0.41 °C and the ΔTm [45] was 0.7 °C. The ΔTm [46] was 0.11 °C, the IC50 [47] was 2.39 µM and the ΔTm [48] was 0.18 °C. The ΔTm [49] was 3.76 °C and the ΔTm [50] was 0.02 °C.
